Experiments:
HER2YVMA = HER2YVMA (Homo sapiens, UniProt P04626, INS775YVMA); test: HER2 signaling (pHER2) in Hek293-HER2YVMA cells; assay type: cell-based; set-up: expressed in transfected cells; host or cells: HEK293 (pool), Ba/F3 (clones), BEAS2B (clones); lentiviral vector pCDH-CMV-MCS-EF1-Neo; settings: 1.5 hr compound, 1% FBS, read-out: HEKYVMA pHER2 EC50
How it was run: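 Lentivirally transduced HER2YVMA lines (HEK293 pool; BEAS2B clone) treated 1.5 h at 37 °C in 1% FBS medium with compound at 0.0005–1.1 μM. Lysates read by MSD immunoassay for pHER2 (Tyr1248) normalized to total HER2, as % DMSO control; EC50 from variable-slope sigmoidal fit.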

EGFR = EGFR (Homo sapiens, UniProt P00533); test: EGFR signaling (pEGFR Tyr1068/total EGFR MSD) in A431 cells; assay type: cell-based; set-up: endogenous in cells; host or cells: A431, N87; settings: for EC50: A431 cells, read-out: A431 pEGFR EC50; for Selectivity A431 EC50/BT474 EC50: ratio A431 pEGFR EC50 to BT474 pHER2 EC50; for Selectivity A431 EC50/HEKYVMA EC50: ratio A431 pEGFR EC50 to HEK YVMA pHER2 EC50
Sequence of EGFR (P00533 25-1210): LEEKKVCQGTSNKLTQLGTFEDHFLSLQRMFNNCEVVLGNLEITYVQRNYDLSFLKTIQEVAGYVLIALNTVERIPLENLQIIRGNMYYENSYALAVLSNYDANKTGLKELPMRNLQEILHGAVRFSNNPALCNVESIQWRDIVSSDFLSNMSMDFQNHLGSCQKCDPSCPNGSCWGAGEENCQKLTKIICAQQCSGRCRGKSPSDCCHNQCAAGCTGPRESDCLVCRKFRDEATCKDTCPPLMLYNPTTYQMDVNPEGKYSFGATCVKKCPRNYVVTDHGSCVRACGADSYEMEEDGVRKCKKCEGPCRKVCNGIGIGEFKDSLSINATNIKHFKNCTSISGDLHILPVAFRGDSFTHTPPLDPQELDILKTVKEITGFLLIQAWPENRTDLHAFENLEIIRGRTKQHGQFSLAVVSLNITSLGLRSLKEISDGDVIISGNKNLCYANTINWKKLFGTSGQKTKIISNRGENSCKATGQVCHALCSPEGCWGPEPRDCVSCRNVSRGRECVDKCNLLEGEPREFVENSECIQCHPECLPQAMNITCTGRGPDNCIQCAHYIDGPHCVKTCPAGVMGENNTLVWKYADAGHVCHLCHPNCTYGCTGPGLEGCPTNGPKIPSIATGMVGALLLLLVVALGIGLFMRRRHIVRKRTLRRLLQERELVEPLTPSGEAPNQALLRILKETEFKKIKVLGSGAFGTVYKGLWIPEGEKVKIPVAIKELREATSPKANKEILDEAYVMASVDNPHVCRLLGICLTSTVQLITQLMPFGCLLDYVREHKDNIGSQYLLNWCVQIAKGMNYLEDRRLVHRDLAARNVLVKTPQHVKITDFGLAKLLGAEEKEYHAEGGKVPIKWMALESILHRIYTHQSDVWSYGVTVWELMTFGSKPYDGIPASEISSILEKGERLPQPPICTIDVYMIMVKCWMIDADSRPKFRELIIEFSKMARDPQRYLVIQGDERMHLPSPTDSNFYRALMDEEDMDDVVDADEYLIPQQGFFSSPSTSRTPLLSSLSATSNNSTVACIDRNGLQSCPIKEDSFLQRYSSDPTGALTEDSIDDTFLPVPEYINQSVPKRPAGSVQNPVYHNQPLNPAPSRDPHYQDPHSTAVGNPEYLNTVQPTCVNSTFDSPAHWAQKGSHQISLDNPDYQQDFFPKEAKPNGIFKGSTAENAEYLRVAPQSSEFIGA
How it was run: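 EC50 was fitted with variable Hill slope from MSD pTyr1068/total EGFR ratios, expressed as % DMSO control. A431 cells were starved overnight, then exposed 1.5 h to eight concentrations from 10 to 0.005 μM in 1% FBS before a 10-min 100 ng/mL EGF pulse.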

Sequence of HER2YVMA (P04626 with tags, fused parts or gaps INS775YVMA): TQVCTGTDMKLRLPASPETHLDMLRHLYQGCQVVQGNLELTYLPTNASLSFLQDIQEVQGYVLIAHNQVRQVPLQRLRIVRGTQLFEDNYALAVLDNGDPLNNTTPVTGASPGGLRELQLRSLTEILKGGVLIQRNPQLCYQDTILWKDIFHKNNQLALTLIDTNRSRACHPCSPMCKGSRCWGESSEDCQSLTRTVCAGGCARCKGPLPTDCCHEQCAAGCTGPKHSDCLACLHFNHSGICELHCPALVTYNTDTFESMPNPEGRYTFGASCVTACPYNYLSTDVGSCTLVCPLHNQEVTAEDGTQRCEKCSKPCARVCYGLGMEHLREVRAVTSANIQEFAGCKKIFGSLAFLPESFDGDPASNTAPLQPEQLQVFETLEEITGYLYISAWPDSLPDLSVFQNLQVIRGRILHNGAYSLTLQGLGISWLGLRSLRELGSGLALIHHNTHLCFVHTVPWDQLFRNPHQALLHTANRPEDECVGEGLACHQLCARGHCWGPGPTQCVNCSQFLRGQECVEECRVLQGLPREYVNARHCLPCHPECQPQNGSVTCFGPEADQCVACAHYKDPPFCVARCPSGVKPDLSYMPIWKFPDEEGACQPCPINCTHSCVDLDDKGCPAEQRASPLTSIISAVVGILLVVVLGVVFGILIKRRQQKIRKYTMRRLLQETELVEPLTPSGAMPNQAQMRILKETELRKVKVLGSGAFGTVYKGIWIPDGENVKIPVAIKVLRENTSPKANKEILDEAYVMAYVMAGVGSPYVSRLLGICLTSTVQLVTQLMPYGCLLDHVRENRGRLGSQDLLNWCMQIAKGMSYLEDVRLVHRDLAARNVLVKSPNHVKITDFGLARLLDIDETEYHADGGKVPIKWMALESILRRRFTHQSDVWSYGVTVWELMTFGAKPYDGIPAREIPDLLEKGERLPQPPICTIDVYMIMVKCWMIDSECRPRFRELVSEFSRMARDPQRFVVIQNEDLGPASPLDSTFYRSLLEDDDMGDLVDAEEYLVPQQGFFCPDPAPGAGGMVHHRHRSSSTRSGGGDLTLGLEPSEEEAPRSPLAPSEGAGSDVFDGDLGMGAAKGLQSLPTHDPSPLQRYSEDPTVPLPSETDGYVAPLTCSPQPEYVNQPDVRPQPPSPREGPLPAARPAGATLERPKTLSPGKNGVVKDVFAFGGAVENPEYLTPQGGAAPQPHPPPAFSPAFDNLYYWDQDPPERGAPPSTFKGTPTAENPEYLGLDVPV

| EC50 (HER2YVMA) | EC50 (EGFR) | Selectivity A431 EC50/BT474 EC50 (EGFR) | Selectivity A431 EC50/HEKYVMA EC50 (EGFR) | Compound |
| --- | --- | --- | --- | --- |
| < 0.1 µM | < 0.1 µM | B (B: ≥ 20 and < 100) | B (B: ≥ 20 and < 100) | Cc1cc(Nc2ncnc3sc4c(c23)CCN(C(=O)/C=C/CN2CC3CCC(C3)C2)C4)ccc1Oc1ccc2ncnn2c1 [Compound 20] |
| < 0.1 µM | < 0.1 µM | A (A: ≥100) | E (E: >1 and < 5) | Cc1ccc(Oc2ccc(Nc3ncnc4sc5c(c34)CCN(C(=O)/C=C/CNC3CCC(C(=O)N(C)C)CC3)C5)cc2C)cn1 (stereo not shown) [Compound 71] |
| < 0.1 µM | < 0.1 µM | D (D: ≥ 5 and < 10) | E (E: >1 and < 5) | Cc1cc(Nc2ncnc3sc4c(c23)CCN(C(=O)/C=C/CN(C)C)C4)ccc1Oc1ccc2cn[nH]c2c1 [Compound 23, (E)-1-(4-((4-((1H-indazol-6-yl)oxy)-3-methylphenyl)amino)-5,8-dihydropyrido[4′,3′:4,5]thieno[2,3-d]pyrimidin-7(6H)-yl)-4-(dimethylamino)but-2-en-1-one] |
| < 0.1 µM | < 0.1 µM | B (B: ≥ 20 and < 100) | C (C: ≥ 10 and < 20) | Cc1ccc(Oc2ccc(Nc3ncnc4sc5c(c34)CCN(C(=O)/C=C/CN3CCCC3C(N)=O)C5)cc2C)cn1 (stereo not shown) [Compound 41] |
| < 0.1 µM | 0.1 to 1 µM | B (B: ≥ 20 and < 100) | B (B: ≥ 20 and < 100) | Cc1cc(Nc2ncnc3sc4c(c23)CCN(C(=O)/C=C/CN(C)C(C)(C)C)C4)ccc1Oc1ccc2ncnn2c1 [Compound 80] |
| < 0.1 µM | < 0.1 µM | B (B: ≥ 20 and < 100) | B (B: ≥ 20 and < 100) | Cc1ccc(Oc2ccc(Nc3ncnc4sc5c(c34)CCN(C(=O)/C=C/CNC3CC3)C5)cc2C)cn1 [Compound 40] |
| < 0.1 µM | 0.1 to 1 µM | C (C: ≥ 10 and < 20) | D (D: ≥ 5 and < 10) | Cc1ccc(Oc2ccc(Nc3ncnc4sc5c(c34)C(C)CN(C(=O)C=CCN(C)C)C5)cc2C)cn1 (single isomer, unassigned) [Compound 105] |
| 0.35 to 1 µM | 1 to 10 µM | C (C: ≥ 10 and < 20) | B (B: ≥ 20 and < 100) | CON(C)C/C=C/C(=O)N1CCc2c(sc3ncnc(Nc4ccc(Oc5ccc(C)nc5)c(C)c4)c23)C1 [Compound 56] |
| < 0.1 µM | < 0.1 µM | C (C: ≥ 10 and < 20) | C (C: ≥ 10 and < 20) | O=C(/C=C/CN1CC2C(CO)C2C1)N1CCc2c(sc3ncnc(Nc4ccc(Oc5ccc6ncnn6c5)c(Cl)c4)c23)C1 (stereo not shown) [Compound 92] |
| < 0.1 µM | > 10 µM | B (B: ≥ 20 and < 100) | A (A: ≥100) | C=C(CN1CCc2c(sc3ncnc(Nc4ccc(Oc5ccc(C)nc5)c(C)c4)c23)C1)C(=O)OCC [Compound 86, Ethyl 2-((4-((3-methyl-4-((6-methylpyridin-3-yl)oxy)phenyl)amino)-5,8-dihydropyrido[4′,3′:4,5]thieno[2,3-d]pyrimidin-7(6H)-yl)methyl)acrylate] |
| < 0.1 µM | 0.1 to 1 µM | C (C: ≥ 10 and < 20) | E (E: >1 and < 5) | Cc1cc(Nc2ncnc3sc4c(c23)CCN(C(=O)/C=C/CN(C)C)C4)ccc1Oc1cccc(B(O)O)c1 [Compound 64, (E)-(3-(4-((7-(4-(dimethylamino)but-2-enoyl)-5,6,7,8-tetrahydropyrido[4′,3′:4,5]thieno[2,3-d]pyrimidin-4-yl)amino)-2-methylphenoxy)phenyl)boronic acid] |
| < 0.1 µM | < 0.1 µM | C (C: ≥ 10 and < 20) | C (C: ≥ 10 and < 20) | Cc1ccc(Oc2ccc(Nc3ncnc4sc5c(c34)CCN(C(=O)/C=C/CN3CC4CC4C3)C5)cc2C)cn1 (stereo not shown) [Compound 76] |
| 0.1 to 0.35 µM | 0.1 to 1 µM | B (B: ≥ 20 and < 100) | E (E: >1 and < 5) | Cc1ccc(Oc2ccc(Nc3ncnc4[nH]c5c(c34)CN(C(=O)/C=C/CN(C)C)CC5)cc2C)cn1 [Compound 97, (E)-4-(dimethylamino)-1-(4-((3-methyl-4-((6-methylpyridin-3-yl)oxy)phenyl)amino)-5,7,8,9-tetrahydro-6H-pyrido[3′,4′:4,5]pyrrolo[2,3-d]pyrimidin-6-yl)but-2-en-1-one] |
| < 0.1 µM | < 0.1 µM | D (D: ≥ 5 and < 10) | D (D: ≥ 5 and < 10) | Cc1cc(Nc2ncnc3sc4c(c23)CCN(C(=O)/C=C/CN(C)C)C4)ccc1Oc1ccc2nonc2c1 [Compound 104, (E)-1-(4-((4-(Benzo[c][1,2,5]oxadiazol-5-yloxy)-3-methylphenyl)amino)-5,6-dihydropyrido[4′,3′:4,5]thieno[2,3-d]pyrimidin-7(8H)-yl)-4-(dimethylamino)but-2-en-1-one] |
| < 0.1 µM | 0.1 to 1 µM | C (C: ≥ 10 and < 20) | D (D: ≥ 5 and < 10) | Cc1ccc(Oc2ccc(Nc3ncnc4sc5c(c34)CCN(C(=O)/C=C/CNCCS(C)(=O)=O)C5)cc2C)cn1 [Compound 45] |
| 0.1 to 0.35 µM | 1 to 10 µM | C (C: ≥ 10 and < 20) | C (C: ≥ 10 and < 20) | C=CC(=O)N1CCc2[nH]c3ncnc(Nc4ccc(Oc5ccc6ncnn6c5)c(C)c4)c3c2C1 [Compound 102, 1-(4-((4-([1,2,4]triazolo[1,5-a]pyridin-6-yloxy)-3-methylphenyl)amino)-5,7,8,9-tetrahydro-6H-pyrido[3′,4′:4,5]pyrrolo[2,3-d]pyrimidin-6-yl)prop-2-en-1-one] |
| < 0.1 µM | 0.1 to 1 µM | B (B: ≥ 20 and < 100) | B (B: ≥ 20 and < 100) | Cc1cc(Nc2ncnc3sc4c(c23)CN(C(=O)/C=C/CN(C)C)CC4)ccc1Oc1ccc2ncnn2c1 [Compound 103, (E)-1-(4-((4-([1,2,4]triazolo[1,5-a]pyridin-6-yloxy)-3-methylphenyl)amino)-7,8-dihydropyrido[3′,4′:4,5]thieno[2,3-d]pyrimidin-6(5H)-yl)-4-(dimethylamino)but-2-en-1-one] |
| < 0.1 µM | 0.1 to 1 µM | B (B: ≥ 20 and < 100) | B (B: ≥ 20 and < 100) | Cc1ncc(Oc2ccc(Nc3ncnc4sc5c(c34)CCN(C(=O)/C=C/CN(C)C)C5)cc2C)cn1 [Compound 21, (E)-4-(dimethylamino)-1-(4-((3-methyl-4-((2-methylpyrimidin-5-yl)oxy)phenyl)amino)-5,8-dihydropyrido[4′,3′:4,5]thieno[2,3-d]pyrimidin-7(6H)-yl)but-2-en-1-one] |
| < 0.1 µM | 0.1 to 1 µM | C (C: ≥ 10 and < 20) | D (D: ≥ 5 and < 10) | CCOC/C=C/C(=O)N1CCc2c(sc3ncnc(Nc4ccc(Oc5ccc(C)nc5)c(C)c4)c23)C1 [Compound 96, (E)-4-ethoxy-1-(4-((3-methyl-4-((6-methylpyridin-3-yl)oxy)phenyl)amino)-5,8-dihydropyrido[4′,3′:4,5]thieno[2,3-d]pyrimidin-7(6H)-yl)but-2-en-1-one] |
| < 0.1 µM | < 0.1 µM | A (A: ≥100) | D (D: ≥ 5 and < 10) | Cc1ccc(Oc2ccc(Nc3ncnc4sc5c(c34)CCN(C(=O)/C=C/CN[C@H]3CC[C@H](OC(F)F)CC3)C5)cc2C)cn1 [Compound 69] |
| 0.35 to 1 µM | > 10 µM | B (B: ≥ 20 and < 100) | C (C: ≥ 10 and < 20) | Cc1ccc(Oc2ccc(Nc3ncnc4sc5c(c34)CCN(C(=O)/C=C/CN3CCn4cc(C(F)(F)F)nc4C3)C5)cc2C)cn1 [Compound 61] |
| < 0.1 µM | < 0.1 µM | D (D: ≥ 5 and < 10) | D (D: ≥ 5 and < 10) | Cc1ccc(Oc2ccc(Nc3ncnc4sc5c(c34)CCN(C(=O)/C=C/CN[C@@H](C)CO)C5)cc2C)cn1 [Compound 75] |
| 0.1 to 0.35 µM | 0.1 to 1 µM | B (B: ≥ 20 and < 100) | E (E: >1 and < 5) | Cc1ccc(Oc2ccc(Nc3ncnc4sc5c(c34)CCN(C(=O)/C=C/CN3CCC(n4ccnc4)CC3)C5)cc2C)cn1 [Compound 62] |

| Compound | EC50 (HER2YVMA) | EC50 (EGFR) | Selectivity A431 EC50/BT474 EC50 (EGFR) | Selectivity A431 EC50/HEKYVMA EC50 (EGFR) |
| --- | --- | --- | --- | --- |
| O=C(/C=C/CN1CC2CC(C2)C1)N1CCc2c(sc3ncnc(Nc4ccc(Oc5ccc6ncnn6c5)c(Cl)c4)c23)C1 [Compound 85] | < 0.1 µM | 0.1 to 1 µM | C (C: ≥ 10 and < 20) | C (C: ≥ 10 and < 20) |
| Cc1ccc(Oc2ccc(Nc3ncnc4sc5c(c34)CCN(C(=O)/C=C/CN3C4CCC3CC4)C5)cc2C)cn1 [Compound 44] | < 0.1 µM | 0.1 to 1 µM | D (D: ≥ 5 and < 10) | E (E: >1 and < 5) |
